Assay [1] concerns the target T1, full length human wildtype Btk (Homo sapiens, UniProt Q06187).
T1 construct: V5 (C); 6xHis (C); made in house; host or cells: Sf9 insect cells (baculovirus, pFastBac)
The assay can be described thus: Biochemical Btk Assay (BTK LC3K). The conditions noted are these: Table 2.

Assay [2] has as its system CD69 by B lymphocytes in human whole blood activated with goat F(ab')2 anti-human IgM. The assay can be described thus: CD69 Whole Blood Assay (CD69 Hu Blood FACS). The format is cell-based. The conditions noted are these: Lymphocyte, Table 2, anti-IgM stimulation, CD69 positive of CD20 positive cells. In short, it runs like this:
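Heparinized human whole blood from healthy drug-free non-smokers preincubated 30 min at 37 °C with ten-point 3-fold compound dilutions, then stimulated with goat F(ab′)2 anti-human IgM (50 μg/ml final) for 20 h. CD69 on B cells read by flow cytometry as mean fluorescence intensity.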

T1 sequence (Q06187 whole entry): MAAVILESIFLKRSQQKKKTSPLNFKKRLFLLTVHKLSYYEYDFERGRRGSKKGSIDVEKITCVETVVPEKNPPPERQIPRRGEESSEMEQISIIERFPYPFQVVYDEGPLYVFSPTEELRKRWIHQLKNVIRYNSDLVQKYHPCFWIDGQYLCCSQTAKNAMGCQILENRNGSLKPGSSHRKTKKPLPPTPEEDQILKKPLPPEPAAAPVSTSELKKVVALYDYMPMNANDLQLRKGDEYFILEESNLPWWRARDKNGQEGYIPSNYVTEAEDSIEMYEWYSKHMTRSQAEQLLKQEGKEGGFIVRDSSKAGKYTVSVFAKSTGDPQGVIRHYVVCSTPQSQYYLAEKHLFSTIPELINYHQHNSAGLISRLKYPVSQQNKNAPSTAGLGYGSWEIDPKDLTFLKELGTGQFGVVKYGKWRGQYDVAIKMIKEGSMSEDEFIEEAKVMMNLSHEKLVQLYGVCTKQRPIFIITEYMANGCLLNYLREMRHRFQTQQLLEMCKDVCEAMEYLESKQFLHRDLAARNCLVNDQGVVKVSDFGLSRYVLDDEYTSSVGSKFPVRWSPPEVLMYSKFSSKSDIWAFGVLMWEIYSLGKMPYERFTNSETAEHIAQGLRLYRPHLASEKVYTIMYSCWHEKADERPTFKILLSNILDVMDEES

In assay [1], `CCNC(=O)Nc1cc(-c2ccnc(N3CCn4c(cc5c4CC(C)(C)C5)C3=O)c2CO)cn(C)c1=O` [Compound 159, 1-[5-[2-(7,7-dimethyl-4-oxo-1,2,6,8-tetrahydrocyclopenta[3,4]pyrrolo[3,5-b]pyrazin-3-yl)-3-(hydroxymethyl)-4-pyridyl]-1-methyl-2-oxo-3-pyridyl]-3-ethyl-urea] displayed a Ki of 1.6 nM. 133 nM corresponded to half-maximal inhibition in assay [2] (IC50).

In turn, `Cn1cc(-c2cccc(N3CCn4c(cc5c4CC(C)(C)C5)C3=O)c2CO)cc(NC(=O)C2CC2)c1=O` [Compound 129, N-[5-[3-(7,7-dimethyl-4-oxo-1,2,6,8-tetrahydrocyclopenta[3,4]pyrrolo[3,5-b]pyrazin-3-yl)-2-(hydroxymethyl)phenyl]-1-methyl-2-oxo-3-pyridyl]cyclopropanecarboxamide] returned a Ki in assay [1] of 3.78 nM. For the same compound, in assay [2], the IC50 turned out to be 51.2 nM.

These data come from patent US9326985B2, “Heteroaryl pyridone and aza-pyridone amide compounds” (Genentech, Inc., priority 2013, dated 2016).
